From US11597727B2 (THE REGENTS OF THE UNIVERSITY OF CALIFORNIA, priority 2018, dated 2023)
pIC50: −log10 of the molar value.

These molecules were tested against integrin α2β1 (Homo sapiens, UniProt P05556+P17301) (assay: HT 1080 cell adhesion assay on rat tail collagen I). Conditions: HT1080 (human fibrosarcoma) cells on rat tail collagen I, absorbance at 595 nm, triplicate; read-out: IC50s from HT 1080 Cell adhesion assay.
Chain of integrin α2β1 (P17301 30-1181): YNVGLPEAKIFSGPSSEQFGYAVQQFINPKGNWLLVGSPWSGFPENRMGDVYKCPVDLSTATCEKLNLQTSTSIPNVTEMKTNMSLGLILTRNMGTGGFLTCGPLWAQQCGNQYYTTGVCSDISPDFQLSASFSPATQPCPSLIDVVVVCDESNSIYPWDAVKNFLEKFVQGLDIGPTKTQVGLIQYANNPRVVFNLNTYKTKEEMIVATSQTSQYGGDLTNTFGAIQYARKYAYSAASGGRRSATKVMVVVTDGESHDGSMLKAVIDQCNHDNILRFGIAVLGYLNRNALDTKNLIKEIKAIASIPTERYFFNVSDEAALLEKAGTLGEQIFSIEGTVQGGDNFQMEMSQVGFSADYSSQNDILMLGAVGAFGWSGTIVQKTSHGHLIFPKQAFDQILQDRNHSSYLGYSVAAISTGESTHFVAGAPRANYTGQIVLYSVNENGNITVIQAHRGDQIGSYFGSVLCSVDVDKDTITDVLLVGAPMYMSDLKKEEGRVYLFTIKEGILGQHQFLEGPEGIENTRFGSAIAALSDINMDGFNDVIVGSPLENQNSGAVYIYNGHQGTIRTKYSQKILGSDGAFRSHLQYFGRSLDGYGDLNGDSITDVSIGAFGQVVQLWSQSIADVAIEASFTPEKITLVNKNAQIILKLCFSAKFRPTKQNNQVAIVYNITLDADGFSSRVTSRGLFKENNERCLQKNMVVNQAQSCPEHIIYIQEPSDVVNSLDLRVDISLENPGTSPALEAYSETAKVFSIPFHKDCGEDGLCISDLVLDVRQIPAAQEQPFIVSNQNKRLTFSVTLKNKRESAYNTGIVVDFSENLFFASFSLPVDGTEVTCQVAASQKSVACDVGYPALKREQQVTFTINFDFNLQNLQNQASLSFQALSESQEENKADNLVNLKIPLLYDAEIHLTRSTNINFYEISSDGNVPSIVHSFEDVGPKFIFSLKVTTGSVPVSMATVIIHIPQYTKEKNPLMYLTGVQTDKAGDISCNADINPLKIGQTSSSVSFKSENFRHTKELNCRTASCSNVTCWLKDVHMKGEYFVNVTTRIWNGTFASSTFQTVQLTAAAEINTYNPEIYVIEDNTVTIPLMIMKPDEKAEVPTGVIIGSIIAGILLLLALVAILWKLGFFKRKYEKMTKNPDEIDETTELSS
Chain of integrin α2β1 (P05556 21-798): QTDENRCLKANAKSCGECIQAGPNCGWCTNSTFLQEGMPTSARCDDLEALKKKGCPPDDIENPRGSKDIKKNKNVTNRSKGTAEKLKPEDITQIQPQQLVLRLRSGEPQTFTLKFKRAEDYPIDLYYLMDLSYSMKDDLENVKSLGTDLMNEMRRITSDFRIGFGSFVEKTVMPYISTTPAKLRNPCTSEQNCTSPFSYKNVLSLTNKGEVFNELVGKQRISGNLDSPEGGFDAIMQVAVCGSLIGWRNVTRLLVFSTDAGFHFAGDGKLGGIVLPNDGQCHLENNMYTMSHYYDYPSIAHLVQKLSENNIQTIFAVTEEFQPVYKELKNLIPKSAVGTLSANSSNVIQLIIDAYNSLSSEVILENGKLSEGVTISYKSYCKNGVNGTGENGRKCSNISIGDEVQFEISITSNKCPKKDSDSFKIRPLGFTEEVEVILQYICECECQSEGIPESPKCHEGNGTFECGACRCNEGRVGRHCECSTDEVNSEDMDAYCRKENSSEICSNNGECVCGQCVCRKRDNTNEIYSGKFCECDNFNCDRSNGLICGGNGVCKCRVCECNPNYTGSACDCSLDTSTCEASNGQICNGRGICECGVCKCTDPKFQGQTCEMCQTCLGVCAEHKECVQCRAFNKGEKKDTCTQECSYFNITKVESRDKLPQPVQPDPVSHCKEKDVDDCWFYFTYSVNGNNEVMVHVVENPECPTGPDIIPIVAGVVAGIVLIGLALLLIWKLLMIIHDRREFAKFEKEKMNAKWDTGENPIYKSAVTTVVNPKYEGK
Assay type: cell-based
Design: HT1080 (human fibrosarcoma) cells (or human airway smooth muscle cells) were detached and resuspended in serum-free DMEM; endogenous in cells; host or cells: HT1080 human fibrosarcoma cells
Experimental: Cell adhesion Assay: Ninety-six-well flat-bottomed tissue culture plates were coated with rat tail collagen I for 1 hour at 37° C. After incubation, wells were blocked with 1% BSA at 37° C. for 1 hour. Control wells were filled with 1% BSA. HT1080 (human fibrosarcoma) cells (or human airway smooth muscle cells) were detached and resuspended in serum-free DMEM. Cells were incubated with anti-integrin alpha2 antibody control or 10-fold dilutions of each compound with a starting concentration of 10 uM for 15 minutes at 4° C. before plating. The plates were centrifuged at 10 g for 5 minutes before incubation for 1 hour at 37° C. in humidified 5% CO2. Nonadherent cells were removed by centrifugation (top side down) at 10 g for 5 minutes. Attached cells were stained with 0.5% crystal violet, and the wells were washed with PBS. The relative number of cells in each well was evaluated after solubilization in 40 μl of 2% Triton X-100 by measuring absorbance at 595 nm in a microplate reader. All determinations were carried out in triplicate.
O=C(NC[C@H](NC(=O)c1c(Cl)cccc1Cl)C(=O)O)NCC12CC3CC(CC(Cl)(C3)C1)C2 [A2-156, (S)-3-(3-((3-chloroadamantan-1-yl)methyl)ureido)-2-(2,6-dichlorobenzamido)propanoic acid] was tested, and the pIC50 was 4.00 to 5.00. CC12CC3CC(C1)CC(NC(=O)NC[C@H](NC(=O)c1c(Cl)cccc1Cl)C(=O)O)(C3)C2 [A2-157, (S)-2-(2,6-dichlorobenzamido)-3-(3-(3-methyladamantan-1-yl)ureido)propanoic acid] gave a pIC50 of 4.00 to 5.00. C[C@@H]1[C@H]2C[C@@H](C[C@H]1NC(=O)NC[C@H](NC(=O)c1c(Cl)cccc1Cl)C(=O)O)C2(C)C [A2-170, (S)-2-(2,6-dichlorobenzamido)-3-(3-((1R,2R,3R,5S)-2,6,6-trimethylbicyclo[3.1.1]heptan-3-yl)ureido)propanoic acid] was tested, and the pIC50 was 4.00 to 5.00. With CC1(C)C2CCC1(C)C(NC(=O)NC[C@H](NC(=O)c1c(Cl)cccc1Cl)C(=O)O)C2 (stereo partly drawn) [A2-171, (2S)-2-(2,6-dichlorobenzamido)-3-(3-(1,7,7-trimethylbicyclo[2.2.1]heptan-2-yl)ureido)propanoic acid] the pIC50 was > 5.00. With O=C(NC[C@H](NC(=O)c1c(Cl)cccc1Cl)C(=O)O)NC1CC2CCC1C2 (stereo partly drawn) [A2-172, (2S)-3-(3-(bicyclo[2.2.1]heptan-2-yl)ureido)-2-(2,6-dichlorobenzamido)propanoic acid] the pIC50 was > 5.00. Work on CC1(C)C2CCC(CNC(=O)NC[C@H](NC(=O)c3c(Cl)cccc3Cl)C(=O)O)C1C2 (stereo partly shown) [A2-173] yielded a pIC50 of 4.00 to 5.00. O=C(NCC1CC2CCC1C2)NC[C@H](NC(=O)c1c(Cl)cccc1Cl)C(=O)O (stereo partly drawn) [A2-174, (2S)-3-(3-(bicyclo[2.2.1]heptan-2-ylmethyl)ureido)-2-(2,6-dichlorobenzamido)propanoic acid] showed a pIC50 of 4.00 to 5.00. Molecule O=C(NCC1CC2CCC1CC2)NC[C@H](NC(=O)c1c(Cl)cccc1Cl)C(=O)O (stereo partly shown) [A2-175] has a pIC50 of 4.00 to 5.00. CC(NC(=O)NCC(NC(=O)c1c(Cl)cccc1Cl)C(=O)O)C1CC2CCC1C2 [A2-176, (2S)-3-(3-(1-((1 S,4R)-bicyclo[2.2.1]heptan-2-yl)ethyl)ureido)-2-(2,6-dichlorobenzamido)propanoic acid] gave a pIC50 of 4.00 to 5.00. O=C(NCC1CC12CCCCC2)NC[C@H](NC(=O)c1c(Cl)cccc1Cl)C(=O)O (stereo partly drawn) [A2-177, (2S)-2-(2,6-dichlorobenzamido)-3-(3-(spiro[2.51]octan-1-ylmethyl)ureido)propanoic acid] gave a pIC50 of 4.00 to 5.00. Molecule O=C(NCC1CC2(CCC2)C1)NC[C@H](NC(=O)c1c(Cl)cccc1Cl)C(=O)O [A2-178, (S)-2-(2,6-dichlorobenzamido)-3-(3-(spiro[3.3]heptan-2-ylmethyl)ureido)propanoic acid] has a pIC50 of 4.00 to 5.00. Work on O=C(NC[C@H](NC(=O)c1c(Cl)cccc1Cl)C(=O)O)NC1CCC2(CCCCC2)CC1 [A2-179, (S)-2-(2,6-dichlorobenzamido)-3-(3-(spiro[5.5]undecan-3-yl)ureido)propanoic acid] yielded a pIC50 of 4.00 to 5.00. For O=C(NC[C@H](NC(=O)c1c(Cl)cccc1Cl)C(=O)O)NC1CCC2(CC1)C1CC3CC(C1)CC2C3 (stereo partly drawn) [A2-180, (S)-2-(2,6-dichlorobenzamido)-3-(3-(spiro[adamantane-2,1′-cyclohexan]-4′-yl)ureido)propanoic acid], the pIC50 was 4.00 to 5.00. Work on O=C(NC[C@H](NC(=O)c1c(Cl)cccc1Cl)C(=O)O)NC12CCC3CC(CC(C3)C1)C2 [A2-181, (25)-2-(2,6-dichlorobenzamido)-3-(3-(tricyclo[4.3.1.13,8]undecan-3-yl)ureido)propanoic acid] yielded a pIC50 of 4.00 to 5.00. Cc1ccc(CNC(=O)NC[C@H](NC(=O)c2c(Cl)cccc2Cl)C(=O)O)cc1 [KZ-1-9, (S)-2-(2,6-dichlorobenzamido)-3-(3-(4-methylbenzyl)ureido)propanoic acid] was tested, and the pIC50 was < 4.00. For O=C(NCCc1ccccc1)NC[C@H](NC(=O)c1c(Cl)cccc1Cl)C(=O)O [KZ-1-11, (S)-2-(2,6-dichlorobenzamido)-3-(3-phenethylureido)propanoic acid], the pIC50 was < 4.00. C[C@@H](NC(=O)NC[C@H](NC(=O)c1c(Cl)cccc1Cl)C(=O)O)c1ccccc1 [KZ-1-12, (S)-2-(2,6-dichlorobenzamido)-3-(3-((R)-1-phenylethyl)ureido)propanoic acid] was tested, and the pIC50 was 4.00 to 5.00. In the case of C[C@H](NC(=O)NC[C@H](NC(=O)c1c(Cl)cccc1Cl)C(=O)O)c1ccccc1 [KZ-1-13, (S)-2-(2,6-dichlorobenzamido)-3-(3-((S)-1-phenylethyl)ureido)propanoic acid], the pIC50 was < 4.00. With COc1ccccc1CNC(=O)NC[C@H](NC(=O)c1c(Cl)cccc1Cl)C(=O)O [KZ-1-14, (S)-2-(2,6-dichlorobenzamido)-3-(3-(2-methoxybenzyl)ureido)propanoic acid] the pIC50 was 4.00 to 5.00. COc1cccc(CNC(=O)NC[C@H](NC(=O)c2c(Cl)cccc2Cl)C(=O)O)c1 [KZ-1-15, (S)-2-(2,6-dichlorobenzamido)-3-(3-(3-methoxybenzyl)ureido)propanoic acid] showed a pIC50 of 4.00 to 5.00. Molecule Cc1cccc(CNC(=O)NC[C@H](NC(=O)c2c(Cl)cccc2Cl)C(=O)O)c1 [KZ-1-16, (S)-2-(2,6-dichlorobenzamido)-3-(3-(3-methylbenzyl)ureido)propanoic acid] has a pIC50 of 4.00 to 5.00. O=C(NCc1ccco1)NC[C@H](NC(=O)c1c(Cl)cccc1Cl)C(=O)O [KZ-1-17, (S)-2-(2,6-dichlorobenzamido)-3-(3-(furan-2-ylmethyl)ureido)propanoic acid] was tested, and the pIC50 was < 4.00. In the case of O=C(NCc1ccccc1Cl)NC[C@H](NC(=O)c1c(Cl)cccc1Cl)C(=O)O [KZ-1-18, (S)-3-(3-(2-chlorobenzyl)ureido)-2-(2,6-dichlorobenzamido)propanoic acid], the pIC50 was 4.00 to 5.00. With COc1ccc(CNC(=O)NC[C@H](NC(=O)c2c(Cl)cccc2Cl)C(=O)O)cc1 [KZ-1-20, (S)-2-(2,6-dichlorobenzamido)-3-(3-(4-methoxybenzyl)ureido)propanoic acid] the pIC50 was < 4.00. Molecule O=C(N[C@@H](CNC(=S)NCc1ccccc1)C(=O)O)c1c(Cl)cccc1Cl [KZ-1-21, (S)-3-(3-benzylthioureido)-2-(2,6-dichlorobenzamido)propanoic acid] has a pIC50 of 4.00 to 5.00. With O=C(NCC1CCCCC1)NC[C@H](NC(=O)c1c(Cl)cccc1Cl)C(=O)O [KZ-1-22, (S)-3-(3-(cyclohexylmethyl)ureido)-2-(2,6-dichlorobenzamido)propanoic acid] the pIC50 was < 4.00. O=C(NCc1ccc(Br)cc1)NC[C@H](NC(=O)c1c(Cl)cccc1Cl)C(=O)O [KZ-1-23, (S)-3-(3-(4-bromobenzyl)ureido)-2-(2,6-dichlorobenzamido)propanoic acid] showed a pIC50 of 4.00 to 5.00. For O=C(NC[C@H](NC(=O)c1c(Cl)cccc1Cl)C(=O)O)Nc1ccccc1 [KZ-1-25, (S)-2-(2,6-dichlorobenzamido)-3-(3-phenylureido)propanoic acid], the pIC50 was < 4.00. With O=C(NCc1ccc(Cl)cc1)NC[C@H](NC(=O)c1c(Cl)cccc1Cl)C(=O)O [KZ-1-26, (S)-3-(3-(4-chlorobenzyl)ureido)-2-(2,6-dichlorobenzamido)propanoic acid] the pIC50 was < 4.00. In the case of CCCNC(=O)NC[C@H](NC(=O)c1c(Cl)cccc1Cl)C(=O)O [KZ-1-27, (S)-2-(2,6-dichlorobenzamido)-3-(3-propylureido)propanoic acid], the pIC50 was < 4.00. O=C(NCc1ccc(C(F)(F)F)cc1)NC[C@H](NC(=O)c1c(Cl)cccc1Cl)C(=O)O [KZ-1-30, (S)-2-(2,6-dichlorobenzamido)-3-(3-(4-(trifluoromethyl)benzyl)ureido)propanoic acid] was tested, and the pIC50 was < 4.00.
